# Assay results taken from patent publication US11485737B2, “Diaryl substituted 5,5-fused ring compounds as C5aR inhibitors” (CHEMOCENTRYX, INC., priority 2017, dated 2022).
# Molecular target: T1, C5aR (Homo sapiens, UniProt P21730)
# T1 construct: U937 cells are a monocytic cell line which express C5aR; host or cells: U937 cells (cAMP-treated overnight)
# T1 sequence (P21730 1-350): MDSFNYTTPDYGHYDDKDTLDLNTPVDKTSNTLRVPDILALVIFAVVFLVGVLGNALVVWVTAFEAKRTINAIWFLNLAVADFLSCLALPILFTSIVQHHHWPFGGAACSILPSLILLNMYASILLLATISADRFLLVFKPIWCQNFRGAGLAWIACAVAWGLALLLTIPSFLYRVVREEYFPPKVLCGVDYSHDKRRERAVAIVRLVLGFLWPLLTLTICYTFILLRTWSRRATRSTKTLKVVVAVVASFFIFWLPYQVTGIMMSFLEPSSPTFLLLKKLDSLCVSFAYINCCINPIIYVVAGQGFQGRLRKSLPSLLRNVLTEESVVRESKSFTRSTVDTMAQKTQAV
# Assay: Chemotaxis assay using U937 cells (C5a-induced migration)
# Type: cell-based
# Conditions: chemotaxis (migration) of U937 cells towards C5a; read-out: Mig IC50
# Method: U937 cells are a monocytic cell line which express C5aR, and are available from ATCC (VA). These cells were cultured as a suspension in RPMI-1640 medium supplemented with 2 mM L-glutamine, 1.5 g/L sodium bicarbonate, 4.5 g/L glucose, 10 mM HEPES, 1 mM sodium pyruvate, and 10% FBS. Cells were grown under 5% CO2/95% air, 100% humidity at 37° C. and subcultured twice weekly at 1:6 (cells were cultured at a density range of 1×10^5 to 2×10^6 cells/mL) and harvested at 1×10^6 cells/mL. Prior to assay, cells are treated overnight with 0.5 mM of cyclic AMP (Sigma, OH) and washed once prior to use. cAMP treated U937 cells can be used in C5aR ligand binding and functional assays.
# Optionally, compounds may be further assayed for their ability to inhibit chemotaxis in cells. Chemotaxis assays are performed using 5 μm pore polycarbonate, polyvinylpyrrolidone-coated filters in 96-well chemotaxis chambers (Neuroprobe; Gaithersburg, Md.) using chemotaxis buffer (Hank's balanced salt solution (HBSS) and 1% FBS). C5aR ligands (i.e., C5a, R&D Systems; Minneapolis, Minn.) are use to evaluate compound mediated inhibition of C5aR mediated migration. Other chemokines (i.e., SDF-1α; R&D Systems; Minneapolis, Minn.) are used as specificity controls. The lower chamber is loaded with 29 μl of chemokine (i.e., 0.03 nM C5a) and varying amounts of compound; the top chamber contains 100,000 U937 or neutrophil cells in 20 μl. The chambers are incubated 1.5 hours at 37° C., and the number of cells in the lower chamber quantified either by direct cell counts in five high powered fields per well or by the CyQuant assay (Molecular Probes), a fluorescent dye method that measures nucleic acid content and microscopic observation.
# The compounds in Table 1, below, were prepared using the methods described above. Characterization data is provided for each compound listed. Activity is provided as follows for the chemotaxis assay using U937 cells as described herein (Example 7): +, 500 nM<IC50; ++, 50 nM<IC50<500 nM; +++, 5 nM<IC50<50 nM; and ++++, IC50<5 nM.
row,IC50,Structure (SMILES)
1,< 5 nM,"CCc1cccc(CC)c1-n1nc2c(c1-c1cc(Cl)c(NC(N)=O)cc1F)CN(Cc1ccc(C(F)(F)F)cc1C(F)(F)F)C2(C)C [Compound 1.001, 1-(4-(5-(2,4-bis(trifluoromethyl)benzyl)-2-(2,6-diethylphenyl)-6,6-dimethyl-2,4,5,6-tetrahydropyrrolo[3,4-c]pyrazol-3-yl)-2-chloro-5-fluorophenyl)urea]"
2,< 5 nM,CCc1cccc(CC)c1-n1nc2c(c1-c1cc(OC)c(NC(N)=O)cc1F)CN(Cc1ccc(C(F)(F)F)cc1C(F)(F)F)C2(C)C [Compound 1.002]
3,< 5 nM,CCc1cccc(CC)c1-n1nc2c(c1-c1cc(C)c(NC(N)=O)cc1F)CN(Cc1ccc(C(F)(F)F)cc1C(F)(F)F)C2(C)C [Compound 1.003]
4,< 5 nM,"CCc1cccc(CC)c1-n1nc2c(c1-c1cc(F)c(NC(N)=O)cc1F)CN(CC(C)(C)C(F)(F)F)C2(C)C [Compound 1.004, 1-(4-(2-(2,6-diethylphenyl)-6,6-dimethyl-5-(3,3,3-trifluoro-2,2-dimethylpropyl)-2,4,5,6-tetrahydropyrrolo[3,4-c]pyrazol-3-yl)-2,5-difluorophenyl)urea]"
5,> 500 nM,CCc1cccc(CC)c1-n1nc2c(c1-c1ccc(C(N)=O)c(F)c1)CN(Cc1ccc(C(F)(F)F)cc1C(F)(F)F)C2(C)C [Compound 1.005]
6,< 5 nM,Cc1cccc(C)c1-n1nc2c(c1-c1cc(F)c(NC(N)=O)cc1F)CN(Cc1ccccc1C(F)(F)F)C2(C)C [Compound 1.006]
7,< 5 nM,Cc1cccc(C)c1-n1nc2c(c1-c1cc(F)c(NC(N)=O)cc1F)CN(Cc1ccc(C(F)(F)F)cc1C(F)(F)F)C2(C)C [Compound 1.007]
8,5 to 50 nM,CCc1cccc(CC)c1-n1nc2c(c1-c1cc(F)c(NC(N)=O)cc1C)CN(CC1(C)COC1)C2(C)C [Compound 1.008]
9,< 5 nM,CCc1cccc(CC)c1-n1nc2c(c1-c1cc(F)c(NC(N)=O)cc1C)CN(Cc1ccccc1C(F)(F)F)C2(C)C [Compound 1.009]
10,< 5 nM,CCc1cccc(CC)c1-n1nc2c(c1-c1cc(F)c(NC(N)=O)cc1C)CN(Cc1ccc(C(F)(F)F)cc1C(F)(F)F)C2(C)C [Compound 1.010]
11,< 5 nM,CCc1cccc(CC)c1-n1nc2c(c1-c1cc(F)c(NC(N)=O)cc1F)CN(Cc1cc(Cl)ccc1Cl)C2(C)C [Compound 1.011]
12,< 5 nM,CCc1cccc(CC)c1-n1nc2c(c1-c1cc(F)c(NC(N)=O)cc1F)CN(C(=O)CC(C)C)C2(C)C [Compound 1.012]
13,< 5 nM,CCc1cccc(CC)c1-n1nc2c(c1-c1cc(F)c(NC(N)=O)cc1F)CN(C(=O)C(C)CC)C2(C)C (stereo not drawn) [Compound 1.013]
14,< 5 nM,CCc1cccc(CC)c1-n1nc2c(c1-c1cc(F)c(NC(N)=O)cc1F)CN(Cc1ccccc1C(F)(F)F)C2(C)C [Compound 1.014]
15,< 5 nM,CCc1cccc(CC)c1-n1nc2c(c1-c1cc(F)c(NC(N)=O)cc1F)CN(CC1CCOCC1)C2(C)C [Compound 1.015]
16,5 to 50 nM,"CCc1cccc(CC)c1-n1nc2c(c1-c1cc(F)c(NC(N)=O)cc1F)CN(C(=O)C(C)C)C2(C)C [Compound 1.016, 1-(4-(2-(2,6-diethylphenyl)-5-isobutyryl-6,6-dimethyl-2,4,5,6-tetrahydropyrrolo[3,4-c]pyrazol-3-yl)-2,5-difluorophenyl)urea]"
17,< 5 nM,CCc1cccc(CC)c1-n1nc2c(c1-c1cc(F)c(NC(N)=O)cc1F)CN(Cc1cc(C(F)(F)F)ccc1C(F)(F)F)C2(C)C [Compound 1.017]
18,< 5 nM,CCc1cccc(CC)c1-n1nc2c(c1-c1cc(F)c(NC(N)=O)cc1F)CN(Cc1ccc(C(F)(F)F)cc1C(F)(F)F)C2(C)C [Compound 1.018]
19,50 to 500 nM,Cc1cccc(C)c1-n1nc2c(c1-c1ccc(NC(N)=O)cc1)CN(CC(C)(C)C)C2(C)C [Compound 1.019]
20,> 500 nM,Cc1cccc(C)c1-n1nc2c(c1-c1ccc(C(N)=O)cc1)CN(c1ccc(C(F)(F)F)c(Cl)c1)C2=O [Compound 1.020]
21,> 500 nM,Cc1ccc(C(C)(C)C)cc1N1Cc2c(nn(-c3c(C)cccc3C)c2-c2ccc(NC(N)=O)cc2)C1=O [Compound 1.021]
22,50 to 500 nM,Cc1cccc(C)c1-n1nc2c(c1-c1ccc(NC(N)=O)cc1)CN(CC(C)(C)C)C2 [Compound 1.022]
23,50 to 500 nM,Cc1cc(C(N)=O)ccc1-c1c2c(nn1-c1c(C)cccc1C)C(=O)N(c1cc(C(C)(C)C)ccc1C)C2 [Compound 1.023]
24,5 to 50 nM,Cc1cc(-c2c3c(nn2-c2c(C)cccc2C)C(=O)N(c2cc(C(C)(C)C)ccc2C)C3)ccc1C(N)=O [Compound 1.024]

row,IC50,Structure (SMILES)
1,> 500 nM,Cc1cc(-c2c3c(nn2-c2c(C)cccc2C)CN(c2cc(C(C)(C)C)ccc2C)C3=O)ccc1C(N)=O [Compound 1.025]
2,> 500 nM,Cc1cccc(C)c1-n1nc2c(c1-c1ccc(C(N)=O)cc1)CN(c1cccc(C(C)(C)C)n1)C2 [Compound 1.027]
3,> 500 nM,Cc1cccc(C)c1-n1nc2c(c1-c1ccc(C(N)=O)cc1)CN(c1cc(C(C)(C)C)ccn1)C2 [Compound 1.028]
4,> 500 nM,Cc1cccc(C)c1-n1nc2c(c1-c1ccc(NC(N)=O)cc1)CN(C(=O)OC(C)(C)C)C2 [Compound 1.029]
5,5 to 50 nM,Cc1ccc(C(C)(C)C)cc1N1Cc2c(nn(-c3c(C)cccc3C)c2-c2ccc(C(N)=O)cc2)C1=O [Compound 1.030]
6,5 to 50 nM,Cc1ccc(C(C)(C)C)cc1N1Cc2nn(-c3c(C)cccc3C)c(-c3ccc(C(N)=O)cc3)c2C1=O [Compound 1.031]
7,> 500 nM,COc1cccc(C)c1-n1nc2c(c1-c1ccc(NC(N)=O)cc1)CN(C(=O)NC(C)(C)C)C2 [Compound 1.032]
8,> 500 nM,Cc1cccc(C)c1-n1nc2c(c1-c1ccc(C(N)=O)cc1)CN(C(=O)NC(C)(C)C)C2 [Compound 1.033]
9,50 to 500 nM,Cc1cccc(C)c1-n1nc2c(c1-c1ccc(C(N)=O)cc1)CN(c1ccc(F)cc1C(C)C)C2 [Compound 1.034]
10,5 to 50 nM,"Cc1cc(F)c(C(C)C)cc1N1Cc2nn(-c3c(C)cccc3C)c(-c3ccc(C(N)=O)cc3)c2C1 [Compound 1.035, 4-(2-(2,6-dimethylphenyl)-5-(4-fluoro-5-isopropyl-2-methylphenyl)-2,4,5,6-tetrahydropyrrolo[3,4-c]pyrazol-3-yl)benzamide]"
11,> 500 nM,Cc1cccc(C)c1-n1nc2c(c1-c1ccc(C(N)=O)cc1)CN(C(=O)c1ccc(C(C)(C)C)cc1)C2 [Compound 1.036]
12,> 500 nM,Cc1cccc(C)c1-n1nc2c(c1-c1ccc(C(N)=O)cc1)CN(C(=O)c1ccccc1)C2 [Compound 1.037]
13,> 500 nM,Cc1cccc(C)c1-n1nc2c(c1-c1ccc(C(N)=O)cc1)CN(C(=O)OC(C)(C)C)C2 [Compound 1.038]
14,> 500 nM,Cc1ccc(N2Cc3nn(-c4c(C)cccc4C)c(-c4ccc(C(N)=O)cc4)c3C2)cc1C(F)(F)F [Compound 1.039]
15,50 to 500 nM,Cc1cc(C(N)=O)ccc1-c1c2c(nn1-c1c(C)cccc1C)CN(c1cc(C(C)(C)C)ccc1C)C2 [Compound 1.040]
16,< 5 nM,Cc1ccc(C(C)(C)C)cc1N1Cc2nn(-c3c(C)cccc3OCC(C)C)c(-c3ccc(C(N)=O)cc3)c2C1 [Compound 1.041]
17,> 500 nM,Cc1ccc(C(C)(C)C)cc1N1Cc2nn(-c3c(C)cccc3C)c(-c3ccc(C(=O)NC4CCCC4)cc3)c2C1 [Compound 1.042]
18,> 500 nM,Cc1ccc(C(C)(C)C)cc1N1Cc2nn(-c3c(C)cccc3C)c(-c3ccc(C(=O)O)cc3)c2C1 [Compound 1.043]
19,50 to 500 nM,COc1cccc(C)c1-n1nc2c(c1-c1ccc(NC(N)=O)cc1)CN(c1ccccc1C(C)C)C2 [Compound 1.044]
20,50 to 500 nM,Cc1cccc(C)c1-n1nc2c(c1-c1ccc(NC(N)=O)cc1)CN(c1ccccc1C(C)C)C2 [Compound 1.045]
21,50 to 500 nM,Cc1cccc(C)c1-n1nc2c(c1-c1ccc(N)cc1)CN(c1ccccc1C(C)C)C2 [Compound 1.046]
22,< 5 nM,Cc1ccc(C(C)(C)C)cc1N1Cc2nn(-c3c(C)cccc3C)c(-c3ccc(C(N)=O)cc3)c2C1 [Compound 1.047]
23,50 to 500 nM,Cc1ccc(C(C)(C)C)cc1N1Cc2nn(-c3c(C)cccc3C)c(-c3ccc(C(C)(C)O)cc3)c2C1 [Compound 1.048]
24,50 to 500 nM,Cc1ccc(C(C)(C)C)cc1N1Cc2nn(-c3c(C)cccc3C)c(-c3ccc(NC(N)=O)cc3)c2C1 [Compound 1.049]
